Columns and labels:
[1] = molecular target: Fibroblast growth factor receptor 2 (Homo sapiens, UniProt P21802)
Description: Inhibition of recombinant human FGFR2 using poly (Glu,Tyr) 4:1 as substrate after 60 mins by ELISA

[2] = molecular target: Fibroblast growth factor receptor 3 (Homo sapiens, UniProt P22607); assay: Inhibition of recombinant human FGFR3 using poly (Glu,Tyr) 4:1 as substrate after 60 mins by ELISA
[3] = molecular target: Fibroblast growth factor receptor 4 (Homo sapiens, UniProt P22455); assay: Inhibition of recombinant human FGFR4 using poly (Glu,Tyr) 4:1 as substrate after 60 mins by ELISA
[4] = molecular target: Proto-oncogene tyrosine-protein kinase receptor Ret (Homo sapiens, UniProt P07949); assay: Inhibition of recombinant Ret (unknown origin) using poly (Glu,Tyr) 4:1 as substrate after 60 mins by ELISA
Proto-oncogene tyrosine-protein kinase receptor Ret, sequence (P07949 whole entry): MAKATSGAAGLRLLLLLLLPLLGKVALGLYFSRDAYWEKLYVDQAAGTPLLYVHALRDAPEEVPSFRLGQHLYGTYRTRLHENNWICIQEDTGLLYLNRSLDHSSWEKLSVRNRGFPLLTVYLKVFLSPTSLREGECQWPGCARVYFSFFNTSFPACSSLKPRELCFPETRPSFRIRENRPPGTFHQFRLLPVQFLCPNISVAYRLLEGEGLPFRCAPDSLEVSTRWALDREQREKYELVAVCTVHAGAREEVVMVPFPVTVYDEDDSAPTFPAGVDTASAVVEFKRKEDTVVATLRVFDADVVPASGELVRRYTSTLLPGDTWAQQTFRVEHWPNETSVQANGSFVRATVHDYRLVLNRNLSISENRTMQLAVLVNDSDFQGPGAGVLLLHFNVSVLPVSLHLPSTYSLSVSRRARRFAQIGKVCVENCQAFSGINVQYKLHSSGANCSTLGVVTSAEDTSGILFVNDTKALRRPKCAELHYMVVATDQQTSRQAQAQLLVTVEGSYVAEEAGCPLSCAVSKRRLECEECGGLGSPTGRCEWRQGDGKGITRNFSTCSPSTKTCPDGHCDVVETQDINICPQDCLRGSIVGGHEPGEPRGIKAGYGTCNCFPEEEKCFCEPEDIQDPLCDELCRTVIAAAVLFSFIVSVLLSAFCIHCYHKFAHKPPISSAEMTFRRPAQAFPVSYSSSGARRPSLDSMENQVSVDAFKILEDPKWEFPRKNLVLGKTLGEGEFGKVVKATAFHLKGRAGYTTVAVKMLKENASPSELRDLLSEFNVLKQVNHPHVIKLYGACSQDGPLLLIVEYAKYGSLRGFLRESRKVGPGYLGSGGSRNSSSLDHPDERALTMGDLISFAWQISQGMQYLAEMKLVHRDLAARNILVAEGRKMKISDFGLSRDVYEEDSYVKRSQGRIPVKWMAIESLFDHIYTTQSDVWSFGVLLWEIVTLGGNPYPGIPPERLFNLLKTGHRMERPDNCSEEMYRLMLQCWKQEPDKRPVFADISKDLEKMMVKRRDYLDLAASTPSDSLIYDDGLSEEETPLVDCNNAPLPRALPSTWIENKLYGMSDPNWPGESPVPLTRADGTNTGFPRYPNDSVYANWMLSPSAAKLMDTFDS

[5] = molecular target: Receptor tyrosine-protein kinase erbB-4 (Homo sapiens, UniProt Q15303); assay: Inhibition of recombinant ErbB4 (unknown origin) using poly (Glu,Tyr) 4:1 as substrate after 60 mins by ELISA
Receptor tyrosine-protein kinase erbB-4, sequence (Q15303 whole entry): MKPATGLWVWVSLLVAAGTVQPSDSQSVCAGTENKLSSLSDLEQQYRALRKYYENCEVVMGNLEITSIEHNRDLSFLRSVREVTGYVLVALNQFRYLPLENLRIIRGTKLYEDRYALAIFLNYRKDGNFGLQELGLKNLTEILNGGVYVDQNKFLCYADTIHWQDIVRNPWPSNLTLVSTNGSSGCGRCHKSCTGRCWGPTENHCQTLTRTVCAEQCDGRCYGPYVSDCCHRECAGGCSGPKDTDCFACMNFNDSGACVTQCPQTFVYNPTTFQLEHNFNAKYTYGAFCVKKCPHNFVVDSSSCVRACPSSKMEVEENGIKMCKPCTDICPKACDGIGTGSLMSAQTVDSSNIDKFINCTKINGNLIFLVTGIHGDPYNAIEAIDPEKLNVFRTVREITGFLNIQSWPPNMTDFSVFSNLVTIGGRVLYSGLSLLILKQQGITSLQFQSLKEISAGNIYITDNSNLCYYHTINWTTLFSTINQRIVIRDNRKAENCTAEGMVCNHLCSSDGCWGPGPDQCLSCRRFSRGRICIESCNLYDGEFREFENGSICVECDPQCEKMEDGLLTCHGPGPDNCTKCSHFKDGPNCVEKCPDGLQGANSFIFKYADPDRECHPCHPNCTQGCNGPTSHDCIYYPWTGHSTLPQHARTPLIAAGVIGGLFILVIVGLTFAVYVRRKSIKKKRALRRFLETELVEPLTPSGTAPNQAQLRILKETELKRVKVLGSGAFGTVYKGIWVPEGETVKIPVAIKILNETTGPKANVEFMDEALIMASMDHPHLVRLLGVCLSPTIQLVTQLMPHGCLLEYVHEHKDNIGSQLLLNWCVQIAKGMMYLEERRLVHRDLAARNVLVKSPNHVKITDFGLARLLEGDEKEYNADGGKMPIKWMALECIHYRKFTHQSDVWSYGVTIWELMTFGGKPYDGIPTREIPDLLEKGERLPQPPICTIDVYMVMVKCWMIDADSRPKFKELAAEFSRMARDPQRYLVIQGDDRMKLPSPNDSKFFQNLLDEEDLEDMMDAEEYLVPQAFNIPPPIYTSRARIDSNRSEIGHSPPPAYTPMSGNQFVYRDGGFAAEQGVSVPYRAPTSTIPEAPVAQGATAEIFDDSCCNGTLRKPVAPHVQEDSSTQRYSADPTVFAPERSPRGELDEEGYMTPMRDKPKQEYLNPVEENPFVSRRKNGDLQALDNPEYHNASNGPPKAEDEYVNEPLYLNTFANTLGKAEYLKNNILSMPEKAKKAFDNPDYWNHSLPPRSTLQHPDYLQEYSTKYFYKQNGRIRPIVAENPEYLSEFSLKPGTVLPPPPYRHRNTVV

[6] = molecular target: Proto-oncogene tyrosine-protein kinase Src (Homo sapiens, UniProt P12931); assay: Inhibition of recombinant c-Src (unknown origin) using poly (Glu,Tyr) 4:1 as substrate after 60 mins by ELISA
[7] = molecular target: Vascular endothelial growth factor receptor 1 (Homo sapiens, UniProt P17948); assay: Inhibition of recombinant VEGFR-1 (unknown origin) using poly (Glu,Tyr) 4:1 as substrate after 60 mins by ELISA
Vascular endothelial growth factor receptor 1, sequence (P17948 whole entry): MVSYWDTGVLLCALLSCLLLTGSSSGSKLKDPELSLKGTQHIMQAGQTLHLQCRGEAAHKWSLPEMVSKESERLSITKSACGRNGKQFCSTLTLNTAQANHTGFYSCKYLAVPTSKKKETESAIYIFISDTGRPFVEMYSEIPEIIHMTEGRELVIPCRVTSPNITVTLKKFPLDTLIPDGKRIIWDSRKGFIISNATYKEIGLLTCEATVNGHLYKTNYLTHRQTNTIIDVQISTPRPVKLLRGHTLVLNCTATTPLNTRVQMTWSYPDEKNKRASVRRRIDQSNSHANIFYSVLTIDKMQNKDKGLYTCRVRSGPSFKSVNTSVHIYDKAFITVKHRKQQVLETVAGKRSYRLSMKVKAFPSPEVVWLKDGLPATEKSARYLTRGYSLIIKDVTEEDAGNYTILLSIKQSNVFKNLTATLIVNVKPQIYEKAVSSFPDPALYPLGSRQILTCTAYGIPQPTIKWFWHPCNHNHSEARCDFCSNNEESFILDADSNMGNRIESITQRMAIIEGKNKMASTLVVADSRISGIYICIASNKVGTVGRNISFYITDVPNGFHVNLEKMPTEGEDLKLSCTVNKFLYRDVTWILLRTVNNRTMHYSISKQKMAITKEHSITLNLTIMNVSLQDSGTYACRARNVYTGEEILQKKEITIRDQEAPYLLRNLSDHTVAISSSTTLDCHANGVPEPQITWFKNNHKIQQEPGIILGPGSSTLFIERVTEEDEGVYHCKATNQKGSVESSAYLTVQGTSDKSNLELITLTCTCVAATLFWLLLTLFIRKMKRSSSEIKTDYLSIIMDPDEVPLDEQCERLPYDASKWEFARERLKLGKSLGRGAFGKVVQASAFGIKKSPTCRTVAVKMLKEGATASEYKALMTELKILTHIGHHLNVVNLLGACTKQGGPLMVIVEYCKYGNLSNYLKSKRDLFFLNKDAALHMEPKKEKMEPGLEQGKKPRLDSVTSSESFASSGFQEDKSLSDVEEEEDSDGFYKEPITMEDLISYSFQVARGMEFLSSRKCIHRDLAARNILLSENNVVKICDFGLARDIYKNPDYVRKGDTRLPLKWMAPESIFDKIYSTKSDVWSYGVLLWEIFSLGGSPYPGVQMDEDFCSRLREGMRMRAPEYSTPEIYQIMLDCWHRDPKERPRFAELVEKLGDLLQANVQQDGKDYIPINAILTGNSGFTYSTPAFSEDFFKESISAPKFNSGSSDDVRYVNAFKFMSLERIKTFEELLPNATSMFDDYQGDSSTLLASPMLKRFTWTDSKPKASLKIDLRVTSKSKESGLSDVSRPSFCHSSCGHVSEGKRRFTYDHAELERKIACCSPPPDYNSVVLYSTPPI

[8] = molecular target: Insulin-like growth factor 1 receptor (Homo sapiens, UniProt P08069); assay: Inhibition of recombinant IGF1R (unknown origin) using poly (Glu,Tyr) 4:1 as substrate after 60 mins by ELISA
Insulin-like growth factor 1 receptor, sequence (P08069 31-736 limits assumed): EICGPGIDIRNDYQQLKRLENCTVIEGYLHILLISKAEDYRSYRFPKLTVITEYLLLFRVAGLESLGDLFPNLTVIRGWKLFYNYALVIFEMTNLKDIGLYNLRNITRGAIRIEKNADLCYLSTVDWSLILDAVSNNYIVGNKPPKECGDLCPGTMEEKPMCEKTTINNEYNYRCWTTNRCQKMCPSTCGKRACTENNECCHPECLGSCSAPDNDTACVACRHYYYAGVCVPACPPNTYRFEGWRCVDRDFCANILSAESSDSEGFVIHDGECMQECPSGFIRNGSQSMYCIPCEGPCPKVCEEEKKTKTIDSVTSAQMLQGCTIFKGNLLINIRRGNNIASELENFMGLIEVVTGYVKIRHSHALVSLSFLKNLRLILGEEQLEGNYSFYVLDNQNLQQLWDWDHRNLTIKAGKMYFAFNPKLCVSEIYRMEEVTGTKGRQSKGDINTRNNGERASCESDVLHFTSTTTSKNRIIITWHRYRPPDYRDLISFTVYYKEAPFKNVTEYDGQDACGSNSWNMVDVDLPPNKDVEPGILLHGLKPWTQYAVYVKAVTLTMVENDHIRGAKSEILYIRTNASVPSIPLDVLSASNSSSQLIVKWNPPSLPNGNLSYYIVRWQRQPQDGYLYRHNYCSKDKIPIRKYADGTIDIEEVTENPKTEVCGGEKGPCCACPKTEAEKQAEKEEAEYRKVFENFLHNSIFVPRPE
Insulin-like growth factor 1 receptor, sequence (P08069 741-1367 limits assumed): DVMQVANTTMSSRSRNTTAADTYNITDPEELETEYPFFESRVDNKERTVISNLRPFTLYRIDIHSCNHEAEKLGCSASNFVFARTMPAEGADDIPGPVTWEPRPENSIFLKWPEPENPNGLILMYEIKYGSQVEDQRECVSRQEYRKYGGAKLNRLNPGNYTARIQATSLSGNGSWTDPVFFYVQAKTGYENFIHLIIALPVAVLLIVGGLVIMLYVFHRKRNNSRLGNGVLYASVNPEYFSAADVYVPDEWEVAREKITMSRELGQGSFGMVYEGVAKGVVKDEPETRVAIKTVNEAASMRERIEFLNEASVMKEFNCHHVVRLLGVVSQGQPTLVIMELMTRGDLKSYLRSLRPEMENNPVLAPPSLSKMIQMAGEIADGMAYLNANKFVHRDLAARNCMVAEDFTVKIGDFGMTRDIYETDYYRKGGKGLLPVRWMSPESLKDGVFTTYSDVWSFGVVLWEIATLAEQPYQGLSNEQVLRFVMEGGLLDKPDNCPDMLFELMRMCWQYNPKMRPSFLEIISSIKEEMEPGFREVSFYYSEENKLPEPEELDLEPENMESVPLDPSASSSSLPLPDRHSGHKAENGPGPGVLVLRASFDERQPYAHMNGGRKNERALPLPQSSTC

[9] = molecular target: Platelet-derived growth factor receptor alpha (Homo sapiens, UniProt P16234); assay: Inhibition of recombinant PDGFR-alpha (unknown origin) using poly (Glu,Tyr) 4:1 as substrate after 60 mins by ELISA
[10] = molecular target: Platelet-derived growth factor receptor beta (Homo sapiens, UniProt P09619); assay: Inhibition of recombinant PDGFR-beta (unknown origin) using poly (Glu,Tyr) 4:1 as substrate after 60 mins by ELISA
[11] = molecular target: Proto-oncogene tyrosine-protein kinase ROS (Homo sapiens, UniProt P08922); assay: Inhibition of recombinant ROS1 (unknown origin) using poly (Glu,Tyr) 4:1 as substrate after 60 mins by ELISA
Ephrin type-A receptor 2 = Ephrin type-A receptor 2 (Homo sapiens, UniProt P29317); assay: Inhibition of recombinant EPH-A2 (unknown origin) using poly (Glu,Tyr) 4:1 as substrate after 60 mins by ELISA
[12] = molecular target: Mast/stem cell growth factor receptor Kit (Homo sapiens, UniProt P10721); assay: Inhibition of recombinant c-Kit (unknown origin) using poly (Glu,Tyr) 4:1 as substrate after 60 mins by ELISA
[13] = molecular target: Hepatocyte growth factor receptor (Homo sapiens, UniProt P08581); assay: Inhibition of recombinant c-Met (unknown origin) using poly (Glu,Tyr) 4:1 as substrate after 60 mins by ELISA
[14] = molecular target: T1, Tyrosine-protein kinase receptor TYRO3 (Homo sapiens, UniProt Q06418); assay: Inhibition of recombinant Tyro3 (unknown origin) using poly (Glu,Tyr) 4:1 as substrate after 60 mins by ELISA
T1 sequence (Q06418 whole entry): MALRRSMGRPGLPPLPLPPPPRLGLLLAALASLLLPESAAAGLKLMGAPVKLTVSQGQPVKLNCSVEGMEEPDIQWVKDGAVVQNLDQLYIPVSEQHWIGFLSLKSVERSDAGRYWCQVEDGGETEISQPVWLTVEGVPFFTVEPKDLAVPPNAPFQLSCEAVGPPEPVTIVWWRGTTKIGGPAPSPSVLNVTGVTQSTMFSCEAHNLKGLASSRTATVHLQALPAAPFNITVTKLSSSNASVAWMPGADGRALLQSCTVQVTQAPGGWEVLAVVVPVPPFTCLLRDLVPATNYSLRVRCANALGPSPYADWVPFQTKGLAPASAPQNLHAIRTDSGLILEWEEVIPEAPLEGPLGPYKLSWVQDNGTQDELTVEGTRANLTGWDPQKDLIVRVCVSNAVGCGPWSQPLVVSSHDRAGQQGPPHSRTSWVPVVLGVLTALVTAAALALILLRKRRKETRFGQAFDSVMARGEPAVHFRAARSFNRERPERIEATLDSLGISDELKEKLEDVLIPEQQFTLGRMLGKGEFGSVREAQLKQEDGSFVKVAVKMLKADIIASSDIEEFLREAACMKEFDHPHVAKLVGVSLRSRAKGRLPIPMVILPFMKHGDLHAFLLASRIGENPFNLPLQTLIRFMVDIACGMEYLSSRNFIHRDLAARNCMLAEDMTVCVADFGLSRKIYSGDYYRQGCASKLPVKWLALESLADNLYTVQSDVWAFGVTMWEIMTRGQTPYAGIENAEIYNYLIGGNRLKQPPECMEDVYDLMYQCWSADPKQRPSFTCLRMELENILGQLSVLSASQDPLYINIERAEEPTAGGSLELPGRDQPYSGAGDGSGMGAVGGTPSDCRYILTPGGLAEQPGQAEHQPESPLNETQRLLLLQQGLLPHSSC

[15] = molecular target: Cyclin-dependent kinase 4 (Homo sapiens, UniProt P11802); assay: Inhibition of CDK4 (unknown origin) by FRET assay
[16] = molecular target: ALK tyrosine kinase receptor (Homo sapiens, UniProt Q9UM73)
Description: Inhibition of recombinant ALK (unknown origin) using poly (Glu,Tyr) 4:1 as substrate after 60 mins by ELISA

Row | IC50 [1] [nM] | IC50 [2] [nM] | IC50 [3] [nM] | IC50 [4] [nM] | IC50 [5] [nM] | IC50 [6] [nM] | IC50 [7] [nM] | IC50 [8] [nM] | IC50 [9] [nM] | IC50 [10] [nM] | IC50 [11] [nM] | IC50 (Ephrin type-A receptor 2) [nM] | IC50 [12] [nM] | IC50 [13] [nM] | IC50 [14] [nM] | IC50 [15] [nM] | IC50 [16] [nM] | SMILES
1 | 1.6 | 27.5 | 299 | 0.2 | 6.2 | 5.7 | 1 to 10 | > 1000 | > 100 | > 10 | > 1000 | > 10 | > 10 | > 1000 | > 1000 | > 1000 | 101 | Cc1n[nH]c2ccc(-c3cc(N[C@@H](CO)c4ccccc4)cnc3-c3cc(F)ccc3O)cc12
2 | 2 | 23 | 7.4 | 0.04 | 5 | 6.4 | > 10 | > 1000 | > 100 | 1 to 10 | 168 | > 100 | > 10 | 196 | > 1000 | > 1000 | 93.9 | OC[C@H](Nc1cnc(-c2cc(Cl)ccc2O)c(-c2ccc3cnccc3c2)c1)c1ccccc1
3 | 4.7 | 15.9 | 93.3 | 0.4 | 2.4 | 6 | > 10 | > 1000 | > 100 | 1 to 10 | > 1000 | > 100 | > 10 | > 1000 | > 1000 | > 1000 | 155 | Cc1n[nH]c2ccc(-c3cc(N[C@@H](CO)c4ccccc4)cnc3-c3ccc(F)cc3O)cc12
4 | 8.6 | 73.1 | 61.7 | 0.7 | 5.3 | 3.9 | > 10 | > 100 | > 100 | > 100 | 273 | > 10 | > 10 | > 1000 | > 1000 | > 1000 | 231 | Cc1n[nH]c2ccc(-c3cc(N[C@@H](CO)c4ccccc4)cnc3-c3cc(Cl)ccc3O)cc12

Reference: ChEMBL document CHEMBL4017490, “Design, Synthesis, and Pharmacological Evaluation of Novel Multisubstituted Pyridin-3-amine Derivatives as Multitargeted Protein Kinase Inhibitors for the Treatment of Non-Small Cell Lung Cancer” (J Med Chem, 2017)
